Results taken from patent publication US20240228512A1, “ACYCLIC OXAZEPINE COMPOUNDS COMPRISING A 6-AZA MOIETY AND USES THEREOF” (Genentech, Inc., priority 2022, published 2024).
Where two headings read alike, the source gives them in different places.

Columns and labels:
[1] = target: recombinant human KRAS wild type (SOS1-mediated nucleotide exchange) (Homo sapiens (Human), UniProt P01116); assay: KRAS biochemical assay, BODIPY-GDP exchange TR-FRET (WT-GDP HTRF)
Experimental: [Worded in the source for another variant; this variant is reported under the same test.] KRAS Biochemical Assay—BODIPY-GDP Exchange TR-FRET.
Biochemical compound potencies were assessed by evaluating inhibition of SOS1-mediated nucleotide exchange in KRAS G12D. The SOS1-promoted exchange of fluorescently-labeled GDP (BOPIDY-GDP) was monitored by time-resolved fluorescence resonance energy transfer (TR-FRET). Compounds solubilized in DMSO were dispensed as concentration series into 384-well white assay plates. […] The reaction was initiated with the addition of 5 μL of 3 nM recombinant human SOS1 and 300 nM BODIPY-GDP in assay buffer. After a 60-minute incubation, the fluorescence was measured with excitation at 337 nm and emission at 490 and 520 nm. The TR-FRET ratio was determined as the fluorescence at 520 nm divided by the fluorescence at 490 nm multiplied by 10,000. […] The normalized TR-FRET results were plotted against compound concentration, and the data fit to a 4-parameter Hill equation to determine the IC50 values.

[2] = target: recombinant human mutant KRas G12V (SOS1-mediated nucleotide exchange) (Homo sapiens (Human), UniProt P01116, G12V); assay: KRAS biochemical assay, BODIPY-GDP exchange TR-FRET (G12V-GDP HTRF)
SW620 cells = assay: SW620 3D proliferation assay (CellTiter-Glo); type: cell-based; settings: SW620, 3D culture, 7 days, read-out: SW620 CTG IC50
Experimental: (§1) SW620 and HPAC 3D proliferation assays.
(§2) Compound potencies were assessed in proliferation assays conducted with SW620 and HPAC cell lines grown in 3D cultures. Cells were seeded into 96- or 384-well ultra-low attachment plates at 3000 or 1000 cells/well, respectively, in culture medium (RPMI-1640, 10% FBS, 2 mM L-glutamine). The plated cells were centrifuged briefly, allowed to rest for 30 minutes under ambient conditions, and cultured overnight at 37° C./5% CO2 to initiate the formation of spheroids. Compound dilutions were prepared across a range of concentrations in DMSO and added to the appropriate wells of the assay plates with a 333-fold dilution into the culture medium. The plates were further incubated for 7 days. The quantity of viable cells was assessed using CellTiter-Glo 3D Cell Viability Assay (Promega). The detection reagent penetrates the spheroids and lyses the cells. The released ATP that was detected with luciferase and a luciferase substrate to generate a luminescent readout. […] The data points were fit to a 4-parameter logistic equation to determine IC50 values.

H1975 cells = assay: H1975 CTG proliferation assay; type: cell-based
HPAC cells = assay: HPAC 3D proliferation assay (CellTiter-Glo); type: cell-based; settings: 3D culture, 7 days, read-out: HPAC CTG IC50
Experimental: as §1, §2

SW620 PERK = SW620 PERK assay; type: cell-based
[3] = Homo sapiens, NCI-H1975, H1975, CTG
[4] = Homo sapiens, SW-620, SW620, PERK

Sequence of recombinant human KRAS wild type (SOS1-mediated nucleotide exchange) (P01116-2 other isoform, or with tags, fused parts or gaps): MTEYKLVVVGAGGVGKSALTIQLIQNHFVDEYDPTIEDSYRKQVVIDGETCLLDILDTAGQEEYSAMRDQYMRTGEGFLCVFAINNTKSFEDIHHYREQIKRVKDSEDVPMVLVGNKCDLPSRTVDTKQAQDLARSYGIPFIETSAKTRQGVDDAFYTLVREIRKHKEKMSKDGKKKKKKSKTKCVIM
Sequence of recombinant human mutant KRas G12V (SOS1-mediated nucleotide exchange) (P01116-2 other isoform, or with tags, fused parts or gaps G12V): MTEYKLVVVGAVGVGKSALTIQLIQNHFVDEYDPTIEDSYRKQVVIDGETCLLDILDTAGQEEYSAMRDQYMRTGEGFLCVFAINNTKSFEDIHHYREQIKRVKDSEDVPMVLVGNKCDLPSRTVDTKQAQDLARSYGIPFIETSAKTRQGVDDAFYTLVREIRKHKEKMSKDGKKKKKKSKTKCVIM

SMILES | IC50 [1] | IC50 [2] | IC50 (SW620 cells; Homo sapiens, SW-620, 168 h) | IC50 (H1975 cells; [3]) | IC50 (HPAC cells; Homo sapiens, 168 h) | IC50 (SW620 PERK; [4]) | IC50 (SW620 cells) | IC50 (H1975 cells; H1975, CTG) | IC50 (HPAC cells) | IC50 (SW620 PERK; SW620, PERK)
Cc1cc(N)nc(-c2nc3c4c(nc(OC[C@@]56CCCN5C[C@H](F)C6)nc4c2F)N(C(C)c2scnc2N)CCO3)c1C(F)(F)F (stereo partly drawn) [Example 607, 5-(1-(5-(6-amino-4-methyl-3-(trifluoromethyl)pyridin-2-yl)-4-fluoro-2-(((2R,7aS)-2-fluorotetrahydro-1H-pyrrolizin-7a(5H)-yl)methoxy)-8,9-dihydro-10H-7-oxa-1,3,6,10-tetraazacyclohepta[de]naphthalen-10-yl)ethyl)thiazol-4-amine] | 0.69 nM | 0.27 nM | 90.7 nM | 35.5 nM | 302 nM | 17.8 nM | – | – | – | –
Cc1cc(N)c(Cl)c(-c2nc3c4c(nc(OC[C@@]56CCCN5C[C@H](F)C6)nc4c2F)N([C@H](C)c2cccnc2N)CCO3)c1C(F)(F)F (single isomer, unassigned) [Example 21a] | 2.93 nM | 1.9 nM | – | – | – | – | 6.87 nM | 180 nM | 103 nM | 33.1 nM
Cc1c(F)c(N)nc(-c2nc3c4c(nc(OC[C@@]56CCCN5C[C@]5(CC5(F)F)C6)nc4c2F)N([C@H](C)c2cccnc2N)CCO3)c1C(F)(F)F [Example 614] | 0.16 nM | 0.12 nM | 1.75 nM | 1960 nM | 11.5 nM | 2.42 nM | – | – | – | –
C#Cc1cccc2nc(N)cc(-c3nc4c5c(nc(OC[C@@]67CCCN6C[C@H](F)C7)nc5c3F)N([C@H](C)c3cccnc3N)CCO4)c12 [Example 30, 4-(10-((R)-1-(2-aminopyridin-3-yl)ethyl)-4-fluoro-2-(((2R,7aS)-2-fluorotetrahydro-1H-pyrrolizin-7a(5H)-yl)methoxy)-9,10-dihydro-8H-7-oxa-1,3,6,10-tetraazacyclohepta[de]naphthalen-5-yl)-5-ethynylquinolin-2-amine] | 0.114 nM | 0.06 nM | 2.67 nM | 2.59 nM | 15.8 nM | 2.65 nM | – | – | – | –
C#Cc1cccc2cc(N)cc(-c3nc4c5c(nc(OC[C@@]67CCCN6C[C@H](F)C7)nc5c3F)N([C@H](C)c3nccnc3N)CCO4)c12 [Example 29, 3-((R)-1-(5-(3-Amino-8-ethynyinaphthalen-1-yl)-4-fluoro-2-(((2R,7aS)-2-fluorotetrahydro-1H-pyrrolizin-7a(5H)-yl)methoxy)-8,9-dihydro-10H-7-oxa-1,3,6,10-tetraazacyclohepta[de]naphthalen-10-yl)ethyl)pyrazin-2-amine] | 0.15 nM | 0.09 nM | 1.64 nM | 2.59 nM | 4.51 nM | 0.66 nM | – | – | – | –
C[C@H](c1cccnc1N)N1CCOc2nc(-c3cc(N)nc4ccccc34)c(F)c3nc(OC[C@@]45CCCN4C[C@H](F)C5)nc1c23 [Example 602, 4-(10-((R)-1-(2-aminopyridin-3-yl)ethyl)-4-fluoro-2-(((2R,7aS)-2-fluorotetrahydro-1H-pyrrolizin-7a(5H)-yl)methoxy)-9,10-dihydro-8H-7-oxa-1,3,6,10-tetraazacyclohepta[de]naphthalen-5-yl)quinolin-2-amine] | 22.6 nM | 2.2 nM | 1950 nM | 296 nM | > 2000 nM | 629 nM | – | – | – | –
Cc1c(F)c(N)c(F)c(-c2nc3c4c(nc(OC[C@@]56CCCN5C[C@H](F)C6)nc4c2Cl)N([C@H](C)c2cccnc2N)CCO3)c1C(F)(F)F (single isomer, unassigned) [Example 629b] | 12.3 nM | 4.8 nM | 74.2 nM | 426 nM | 682 nM | 105 nM | – | – | – | –
Cc1nc(N)cc(-c2nc3c4c(nc(OC[C@@]56CCN5C[C@]5(CC5(F)F)C6)nc4c2F)N([C@H](C)c2cncnc2N)CCO3)c1C(F)(F)F [Example 606] | 0.808 nM | 0.2 nM | 1520 nM | 374 nM | > 2000 nM | 855 nM | – | – | – | –
Cc1nc(N)cc(-c2nc3c4c(nc(OC[C@@]56CCCN5C[C@H](F)C6)nc4c2Cl)N([C@H](C)c2cccnc2N)CCO3)c1C(F)(F)F [Example 626, 4-(10-((R)-1-(2-aminopyridin-3-yl)ethyl)-4-chloro-2-(((2R,7aS)-2-fluorotetrahydro-1H-pyrrolizin-7a(5H)-yl)methoxy)-9,10-dihydro-8H-7-oxa-1,3,6,10-tetraazacyclohepta[de]naphthalen-5-yl)-6-methyl-5-(trifluoromethyl)pyridin-2-amine] | 0.67 nM | 0.16 nM | 27.1 nM | 262 nM | 160 nM | 10.5 nM | – | – | – | –
C[C@H](c1cccnc1N)N1CCOc2nc(-c3c(C(F)(F)F)ccc(N)c3Cl)c(F)c3nc(OC[C@@]45CCCN4C[C@H](F)C5)nc1c23 (atropisomer, axis not shown; (aS)) [Example 622a, 3-((R)-1-((R)-5-(3-amino-2-chloro-6-(trifluoromethyl)phenyl)-4-fluoro-2-(((2R,7aS)-2-fluorotetrahydro-1H-pyrrolizin-7a(5H)-yl)methoxy)-8,9-dihydro-10H-7-oxa-1,3,6,10-tetraazacyclohepta[de]naphthalen-10-yl)ethyl)pyridin-2-amine] | 0.572 nM | 0.19 nM | 5.1 nM | 766 nM | 39.6 nM | 3.2 nM | – | – | – | –
Cc1c(F)c(N)nc(-c2nc3c4c(nc(OC[C@@]56CCCN5C[C@H](F)C6)nc4c2F)N([C@H](C)c2cc(F)cnc2N)CCO3)c1C(F)(F)F [Example 631, 6-(10-((R)-1-(2-amino-5-fluoropyridin-3-yl)ethyl)-4-fluoro-2-(((2R,7aS)-2-fluorotetrahydro-1H-pyrrolizin-7a(5H)-yl)methoxy)-9,10-dihydro-8H-7-oxa-1,3,6,10-tetraazacyclohepta[de]naphthalen-5-yl)-3-fluoro-4-methyl-5-(trifluoromethyl)pyridin-2-amine] | 0.741 nM | 0.21 nM | 47.3 nM | 113 nM | 110 nM | 16.5 nM | – | – | – | –
C#Cc1cccc2cncc(-c3nc4c5c(nc(OC[C@@]67CCCN6C[C@H](F)C7)nc5c3F)N([C@H](C)c3cccnc3N)CCO4)c12 [Example 18, 3-((R)-1-(5-(5-ethynylisoquinolin-4-yl)-4-fluoro-2-(((2R,7aS)-2-fluorotetrahydro-1H-pyrrolizin-7a(5H)-yl)methoxy)-8,9-dihydro-10H-7-oxa-1,3,6,10-tetraazacyclohepta[de]naphthalen-10-yl)ethyl)pyridin-2-amine] | 0.33 nM | 0.24 nM | 13 nM | 5.54 nM | 56.1 nM | 5.44 nM | – | – | – | –
Cc1c(F)c(N)nc(-c2nc3c4c(nc(OC[C@@]56CCCN5C[C@H](F)C6)nc4c2Cl)N([C@H](C)c2cccnc2N)CCO3)c1C(F)(F)F [Example 620, 6-(10-((R)-1-(2-aminopyridin-3-yl)ethyl)-4-chloro-2-(((2R,7aS)-2-fluorotetrahydro-1H-pyrrolizin-7a(5H)-yl)methoxy)-9,10-dihydro-8H-7-oxa-1,3,6,10-tetraazacyclohepta[de]naphthalen-5-yl)-3-fluoro-4-methyl-5-(trifluoromethyl)pyridin-2-amine] | 0.748 nM | 0.24 nM | 19.2 nM | 132 nM | 89.8 nM | 4.29 nM | – | – | – | –
Cc1c(F)c(N)cc(-c2nc3c4c(nc(OC[C@@]56CCCN5C[C@H](F)C6)nc4c2F)N([C@H](C)c2cncnc2N)CCO3)c1C(F)(F)F [Example 617, 5-((R)-1-(5-(5-amino-4-fluoro-3-methyl-2-(trifluoromethyl)phenyl)-4-fluoro-2-(((2R,7aS)-2-fluorotetrahydro-1H-pyrrolizin-7a(5H)-yl)methoxy)-8,9-dihydro-10H-7-oxa-1,3,6,10-tetraazacyclohepta[de]naphthalen-10-yl)ethyl)pyrimidin-4-amine] | 0.31 nM | 0.11 nM | 38 nM | 24.4 nM | 239 nM | 28.8 nM | – | – | – | –
